Experimental data as given in US7410983B2 (Fournier Laboratories Ireland Limited, priority 2000, dated 2008).

Columns and labels:
[1] = tested on: patients with type 2 diabetes; test: Venous occlusion plethysmography: forearm blood flow response to intra-brachial acetylcholine; assay type: in vivo, human; conditions: 12 weeks; for mean change on treatment (Week 12-Week 0) in acetylcholine AUC percent increase in forearm blood flow ratio: single treatment group, 200 mg once daily each agent, ACh 7.5, 15 and 30 μg/min, aspirin pretreatment
Method: Evaluations of vascular function were carried out by bilateral venous occlusion plethysmography at weeks 0 and 12. These consisted of serial measurements of forearm blood flow before and after intra-brachial artery infusion of acetylcholine (ACh 7.5, 15 and 30 μg/min), sodium nitroprusside (SNP 1.5, 3 and 10 μg/min) and N^G-monomethyl-L-arginine (L-NMMA 4 μmol/l). […] Pretreatment with acetylsalicylic acid (aspirin) (650 mg daily taken orally) was given for one week to block prostacyclin and thromboxane generation.
Plethysmography studies were performed during a 5 minute infusion of each agent, diluted in saline and infused at a rate of 1 mL/min into the brachial artery of the non-dominant arm via a thin plastic cannula Each infusion of vasoactive agents was preceded by a period of saline infusion. Bilateral forearm blood flow was measured simultaneously at 15 second intervals for the final two minutes of each 5 minute infusion period employing mercury-in-silastic strain gauges. During measurements hands were excluded from the circulation by inflation of wrist cuffs to 200 mmHg and venous occlusion was obtained by cyclical inflation of upper arm cuffs to 40 mmHg. Results were expressed as the area under the curve (AUC) of the percent increase in forearm blood flow ratio (infused arm versus control arm) to account for any systemic effect of these vasoactive drugs. The AUC provided integration over time of the dose response to the agent used. AUC for percent change in blood flow to ACh was a priori described as the primary efficacy criterion in this trial.
Statistical analyses were performed using 2 by 2 analysis of variance using SPSS package

[2] = tested on: patients with type 2 diabetes; test: Lipids, diabetes control and blood pressure in the randomized clinical trial; assay type: in vivo, human; conditions: 12 weeks, 200 mg once daily
Method: (§1) Male or female patients aged less than 70 years and without severe obesity (Body Mass Index below 35 kg/m^2) were included after a 6 week run-in period if they had Haemoglobin A1c below 9%, total cholesterol below 6.5 mmol/l and either triglyceride above 1.8 mmol/l or HDL cholesterol below 1 mmol/l. The two therapeutic agents alone or in combination were given each as 200 mg once daily. Capsules identical in appearance to each agent but containing placebo were given to maintain the double-blind nature of the study.

[3] = tested on: patients with type 2 diabetes; test: Venous occlusion plethysmography: forearm blood flow response to intra-brachial sodium nitroprusside; assay type: in vivo, human; conditions: 12 weeks
Method: as §1
(§2) Evaluations of vascular function were carried out by bilateral venous occlusion plethysmography at weeks 0 and 12. […]
(§3) Plethysmography studies were performed during a 5 minute infusion of each agent, diluted in saline and infused at a rate of 1 mL/min into the brachial artery of the non-dominant arm via a thin plastic cannula Each infusion of vasoactive agents was preceded by a period of saline infusion. Bilateral forearm blood flow was measured simultaneously at 15 second intervals for the final two minutes of each 5 minute infusion period employing mercury-in-silastic strain gauges. […] Results were expressed as the area under the curve (AUC) of the percent increase in forearm blood flow ratio (infused arm versus control arm) to account for any systemic effect of these vasoactive drugs. […]

[4] = tested on: patient; conditions: for the patient; cited from earlier work
[5] = CoQ10 plasma levels after treatment; assay type: in vivo, human; conditions: 12 weeks, 200 mg once daily each
Method: as §1

[6] = tested on: patients with type 2 diabetes; test: Venous occlusion plethysmography: forearm blood flow response to acetylcholine with co-infusion of L-NMMA; assay type: in vivo, human; conditions: 12 weeks
Method: as §1, §2, §3

[7] = pooled groups of the 2×2 design: all patients on the agent, with or without the other agent

In the case of `COC1=C(OC)C(=O)C(C/C=C(\C)CC/C=C(\C)CC/C=C(\C)CC/C=C(\C)CC/C=C(\C)CC/C=C(\C)CC/C=C(\C)CC/C=C(\C)CC/C=C(\C)CCC=C(C)C)=C(C)C1=O` [Q, coenzyme Q10], the “mean change on treatment (Week 12-Week 0) in acetylcholine AUC percent increase in forearm blood flow ratio, factorial margin (F+ or Q+)” value [1, 7] is reported as 206% [119% to, the “mean change on treatment (Week 12-Week 0) in acetylcholine AUC percent increase in forearm blood flow ratio” value [1] is reported as −7% [−119% and the “mean change on treatment (Week 12-Week 0) in acetylcholine AUC percent increase in forearm blood flow ratio” value ([1]; listed as CoQ10) is reported as “no change”. For the same molecule, the lipid lowering effects [2] was “no lipid lowering effects”, the “mean change on treatment (Week 12-week 0) in sodium nitroprusside AUC percent increase in forearm blood flow ratio, factorial margin (F+ or Q+)” value [3, 7] was 822% [399% to and the “mean change on treatment (Week 12-week 0) in sodium nitroprusside AUC percent increase in forearm blood flow ratio” value ([3]; single treatment group, 200 mg once daily each agent, SNP 1.5, 3 and 10 μg/min) was 50% [−641% to. The “dose previously demonstrated to be safe” value [4] was “up to 300 mg daily”, the “plasma levels of CoQ10 after treatment, CoQ10 alone versus combination groups” value [5] was “did not differ” and the “mean change on treatment (Week 12-Week 0) in acetylcholine percent increase in forearm blood flow ratio with co-infusion of L-NMMA, factorial margin (F+ or Q+)” value [6, 7] was 48% [6% to 90%]. The “mean change on treatment (Week 12-Week 0) in acetylcholine percent increase in forearm blood flow ratio with co-infusion of L-NMMA” value ([6]; single treatment group, 200 mg once daily each agent) was −21% [−76% to.
